Test results from patent publication US20110230367A1, “Amphiphilic Peptides Promoting Production of Target miRNA and Method of Regulating Production of Target miRNA” (SNU R&DB FOUNDATION, priority 2009, published 2011).
Read-outs that look alike come from different tables or passages of the source.

Experiments:
[1] = biological target: pre-let7a-1; test: Dissociation constant by competitive fluorescence anisotropy with rhodamine-rev peptide probe; format: binding; details: for Discrimination ratio pre-let7a-1 (in parenthesis): Kd against other RNA (HBV, IRES, other miRNAs)/Kd against target miRNA
Procedure: (§1) The binding affinity between the peptide synthesized in <Example 1> and pre-miRNA from <Example 2> were measured by fluorescence anisotropy using competitive binding method. A rev peptide with rhodamine attached at the N-terminal was used as a fluorescent probe and LS-55 luminescence spectrometer from Perkin-Elmer was use for analysis. A constant temperature of 20° C. was maintained by a water bath. The fluorescent intensity was measured by of 200 nM of rhodamine-rev peptide was measured with an excitation wavelength at 550 nm (band path 10 nm) and detection at 580 nm (band path 10 nm). The integration time […]. Each experimental value is the mean value of 5 measurements. A 20 mM of HEPES{4-(2-hydroxyethyl)-1-piperazineethanesulfonic acid} buffer (pH 7.5) containing 140 mM NaCl, 5 mM KCl and 1 mM MgCl2 was used for measuring the dissociation constant. The dissociation constant was determined according to the Mathematical Formula 1 and using Kaledia graph.
(§2) A and Ao are the fluorescence anistropy in the presence or absence of RNA, whereas ΔA is the difference between these two values. [RNA]0 and [Rh-rev]0 are initial concentrations of RNA and rev peptide binding with rhodamine.
(§3) According the method described in <Example 3>, the dissociation constant between second generation peptide and 2 pre-miRNAs synthesized from <Example 2> was determined using fluorescent polarization detection method and fluorescent probe molecule.

[2] = biological target: pre-miR16-1; test: as above; format: binding; details: for Discrimination ratio pre-miR16-1 (in parenthesis): Kd against other RNA/Kd against target miRNA
Procedure: as §1, §2, §3

[3] = biological target: HBV (hairpin RNA); test: as above; format: binding; details: Table 6
Procedure: as §1, §2, §3

[4] = biological target: IRES (hairpin RNA); test: as above; format: binding; details: Table 6
Procedure: as §1, §2, §3

[5] = biological target: pre-miR24-1; test: as above; format: binding; details: for Kd / Discrimination ratio pre-miR24-1 (in parenthesis): Table 6; for Discrimination ratio pre-miR24-1 (in parenthesis): Kd against other RNA/Kd against target miRNA
Procedure: as §1, §2, §3

[6] = system: recombinant human Dicer processing pre-let7a-1; test: Dicer activity assay in the presence of peptide, substrate pre-let7a-1; format: biochemical; details: 400 nM peptide, pre-let7a-1 substrate, FIG. 2
Procedure: Two types of pre-miRNA (pre-let7a-1, pre-miR16-1) used as the substrate for the Dicer enzyme activity assay was ordered and manufactured by ST Pharm Co., Ltd (FIG. 1). For Dicer activity assay, the 5′ end of the synthesized pre-miRNA was labeled with ^32p isotope. Two pmole of each pre-miRNA was isotope labeled with […] of [g-^32P]ATP (New England Biolabs) using 10 units of T4 polynucleotide kinase (New England Biolabs). Total volume of 10 μl was isotope labeled for 1 hr at 37° C. The isotope labeled RNA obtained after the reaction was purified using G-25 Sephadex column (Sigma). The purified substrate was used for measuring Dicer enzyme activity. Total reaction mixture of 30 μl containing 1 nM of isotope labeled pre-miRNA and 0.001 u/μl of recombinant human Dicer (Genlantis, CA, USA) were incubated at 37° C. in 24 mM 4-(2-hydroxyethyl)-1-piperazineethanesulfonic acid, HEPES) buffer system containing 200 mM NaCl, 0.04 mM EDTA, 1 mM ATP and 2.5 mM MgCl2(pH 8.0). After reacting for 0, 10, 30, […], 3 μl of each reaction mixture was mixed with 5 μl of RNA gel loading buffer {95% formamide, 10 mM ethylenediaminetetraacetic acid (EDTA), 0.05% FF (xylene cyanol FF)} and incubated for 5 min at 65° C. The amount of the reaction product was determined by gel running in 15% polyacrylamide gel containing 7M urea, and then the initial reaction velocity (V0) from each reaction was compared. The initial reaction velocity (V0) of the enzyme is the reaction velocity of the initial linear time (until 30 min). Each initial velocity was normalized with the initial velocity from each substrate condition without peptide treatment. The initial reaction velocity of Dicer for pre-let7a-1 and pre-miR16-1 without peptide treatment were […] and 0.018 fmole/min, respectively. Each of the initial reaction velocity is a mean data of more than 3 measurements, and the standard deviation is shown as error bars.

[7] = system: recombinant human Dicer processing pre-miR16-1; test: Dicer activity assay in the presence of peptide, substrate pre-miR16-1; format: biochemical; details: 400 nM peptide, pre-miR16-1 substrate, FIG. 2
Procedure: Two types of pre-miRNA (pre-let7a-1, pre-miR16-1) used as the substrate for the Dicer enzyme activity assay was ordered and manufactured by ST Pharm Co., Ltd (FIG. 1). For Dicer activity assay, the 5′ end of the synthesized pre-miRNA was labeled with ^32p isotope. Two pmole of each pre-miRNA was isotope labeled with […] of [g-^32P]ATP (New England Biolabs) using 10 units of T4 polynucleotide kinase (New England Biolabs). Total volume of 10 μl was isotope labeled for 1 hr at 37° C. The isotope labeled RNA obtained after the reaction was purified using G-25 Sephadex column (Sigma). The purified substrate was used for measuring Dicer enzyme activity. Total reaction mixture of 30 μl containing 1 nM of isotope labeled pre-miRNA and 0.001 u/μl of recombinant human Dicer (Genlantis, CA, USA) were incubated at 37° C. in 24 mM 4-(2-hydroxyethyl)-1-piperazineethanesulfonic acid, HEPES) buffer system containing 200 mM NaCl, 0.04 mM EDTA, 1 mM ATP and 2.5 mM MgCl2(pH 8.0). After reacting for 0, 10, 30, 60 or 120 min in the presence of 400 nM concentration of 2b or 2c peptide, 3 μl of each reaction mixture was mixed with 5 μl of RNA gel loading buffer {95% formamide, 10 mM ethylenediaminetetraacetic acid (EDTA), 0.05% FF (xylene cyanol FF)} and incubated for 5 min at 65° C. The amount of the reaction product was determined by gel running in 15% polyacrylamide gel containing 7M urea, and then the initial reaction velocity (V0) from each reaction was compared. The initial reaction velocity (V0) of the enzyme is the reaction velocity of the initial linear time (until 30 min). Each initial velocity was normalized with the initial velocity from each substrate condition without peptide treatment. The initial reaction velocity of Dicer for pre-let7a-1 and pre-miR16-1 without peptide treatment were […] and 0.018 fmole/min, respectively. Each of the initial reaction velocity is a mean data of more than 3 measurements, and the standard deviation is shown as error bars.

[8] = Table 5, second generation peptides, read-out: Kd value against pre-let7a-1
[9] = Table 6, read-out: Kd pre-let7a-1
[10] = Table 5, second generation peptides, read-out: Kd value against pre-miR16-1
[11] = Table 6, read-out: Kd pre-miR16-1
[12] = Table 3, first generation peptides, 20° C., HEPES pH 7.5, read-out: Kd value with pre-let7a-1
[13] = Table 3, first generation peptides, 20° C., HEPES pH 7.5, read-out: Kd value with pre-miR16-1

LKKLLKLLKKWWKLAG [Peptide 2h, Ac-LKKLLKLLKKWWKLAG, 19]
Kd [1, 8]: 1.5 nM
Discrimination ratio pre-let7a-1 (in parenthesis) ([1]; Table 6): 1.8
Kd [1, 9]: 1.5 nM
Kd [2, 10]: 2.6 nM
Discrimination ratio pre-miR16-1 (in parenthesis) ([2]; Table 6): 1.0
Kd [2, 11]: 2.6 nM
Kd [3]: 5.7 nM
Kd [4]: 1.7 nM
Kd [5]: 1.5 nM
Discrimination ratio pre-miR24-1 (in parenthesis) [5]: 1.9

WKKLLKLLKKLWKLAG [Peptide 2d, Ac-WKKLLKLLKKLWKLAG, 15]
Kd [1, 8]: 0.25 nM
Discrimination ratio pre-let7a-1 (in parenthesis) ([1]; Table 6): 1.2
Kd [1, 9]: 0.22 nM
Kd [2, 10]: 0.64 nM
Discrimination ratio pre-miR16-1 (in parenthesis) ([2]; Table 6): 1.2
Kd [2, 11]: 0.64 nM
Kd [3]: 0.79 nM
Kd [4]: 0.77 nM
Kd [5]: 0.67 nM
Discrimination ratio pre-miR24-1 (in parenthesis) [5]: 1.0

LKKLLKLLKKLLKWAG [Peptide 1h, Ac-LKKLLKLLKKLLKWAG]
binding with pre-let7a-1 [1]: significant increase in binding affinity
Kd [1, 12]: 0.11 nM
increase in binding affinity compared to the peptide with no tryptophan substitution (peptide 1) ([1]; pre-miRNA not named, values fit pre-let7a-1): 150 times
binding with pre-miR16-1 [2]: significant increase in binding affinity
Kd [2, 13]: 0.4 nM

WKKLLKLLKKLLKLAG [Peptide 1a, Ac-WKKLLKLLKKLLKLAG]
binding with pre-let7a-1 [1]: significant increase in binding affinity
Kd [1, 12]: 0.17 nM
binding with pre-miR16-1 [2]: significant increase in binding affinity
Kd [2, 13]: 0.42 nM

LKKWLKLLKKLLKLAG [Peptide 1b, Ac-LKKWLKLLKKLLKLAG]
Kd [1, 12]: 0.68 nM
Kd [2, 13]: 1.2 nM

LKKLLKLLKKLWKWAG [Peptide 2j, Ac-LKKLLKLLKKLWKWAG, 21]
Kd [1, 8]: 0.37 nM
Discrimination ratio pre-let7a-1 (in parenthesis) ([1]; Table 6): 1.0
Kd [1, 9]: 0.37 nM
Kd [2, 10]: 0.44 nM
Discrimination ratio pre-miR16-1 (in parenthesis) ([2]; Table 6): 1.4
Kd [2, 11]: 0.44 nM
Kd [3]: 0.35 nM
Kd [4]: 0.85 nM
Kd [5]: 0.27 nM
Discrimination ratio pre-miR24-1 (in parenthesis) [5]: 1.9

LKKLLKWLKKLLKWAG [Peptide 2g, Ac-LKKLLKWLKKLLKWAG, 18]
Kd [1, 8]: 0.96 nM
Discrimination ratio pre-let7a-1 (in parenthesis) ([1]; Table 6): 0.85
Kd [1, 9]: 0.96 nM
Kd [2, 10]: 1.1 nM
Discrimination ratio pre-miR16-1 (in parenthesis) ([2]; Table 6): 0.99
Kd [2, 11]: 1.1 nM
Kd [3]: 1 nM
Kd [4]: 1.3 nM
discrimination ratio for pre-miR24-1 [5]: 2.3
Kd [5]: 0.47 nM
Discrimination ratio pre-miR24-1 (in parenthesis) [5]: 2.3

LKKLLKWLKKLLKLAG [Peptide 1d, Ac-LKKLLKWLKKLLKLAG]
Kd [1, 12]: 0.64 nM
Kd [2, 13]: 1.8 nM

WKKLLKLLKKLLKWAG [Peptide 2e, Ac-WKKLLKLLKKLLKWAG, 16]
Kd [1, 8]: 0.22 nM
Discrimination ratio pre-let7a-1 (in parenthesis) ([1]; Table 6): 1.7
Kd [1, 9]: 0.9 nM
Kd [2, 10]: 0.28 nM
Discrimination ratio pre-miR16-1 (in parenthesis) ([2]; Table 6): 2.3
Kd [2, 11]: 0.28 nM
discrimination ratio for pre-miR16-1 ([2]; against other RNAs): 2.3
Kd [3]: 0.34 nM
Kd [4]: 0.76 nM
Kd [5]: 0.84 nM
Discrimination ratio pre-miR24-1 (in parenthesis) [5]: 0.50

LKKLLKLLKKWLKWAG [Peptide 2i, Ac-LKKLLKLLKKWLKWAG, 20]
Kd [1, 8]: 0.31 nM
Discrimination ratio pre-let7a-1 (in parenthesis) ([1]; Table 6): 4.4
Kd [1, 9]: 0.31 nM
Kd [2, 10]: 0.47 nM
Discrimination ratio pre-miR16-1 (in parenthesis) ([2]; Table 6): 1.6
Kd [2, 11]: 0.47 nM
Kd [3]: 0.82 nM
Kd [4]: 1.2 nM
Kd [5]: 0.53 nM
Discrimination ratio pre-miR24-1 (in parenthesis) [5]: 1.2

LKKLLKLWKKLLKLAG [Peptide 1e, Ac-LKKLLKLWKKLLKLAG]
initial reaction velocity (V0) of Dicer, normalized to no peptide [6]: did not increase
initial reaction velocity (V0) of Dicer, normalized to no peptide [7]: did not increase
Kd [1, 12]: 20 nM
Kd [2, 13]: 27 nM

WKKLWKLLKKLLKLAG [Peptide 2a, Ac-WKKLWKLLKKLLKLAG, 12]
Kd [1, 8]: 0.23 nM
Discrimination ratio pre-let7a-1 (in parenthesis) ([1]; Table 6): 2.8
Kd [1, 9]: 0.23 nM
Kd [2, 10]: 0.32 nM
Discrimination ratio pre-miR16-1 (in parenthesis) ([2]; Table 6): 2.6
Kd [2, 11]: 0.32 nM
Kd [3]: 0.77 nM
Kd [4]: 0.9 nM
Kd [5]: 0.82 nM
Discrimination ratio pre-miR24-1 (in parenthesis) [5]: 0.66

LKKLWKLLKKLLKWAG [Peptide 2f, Ac-LKKLWKLLKKLLKWAG, 17]
Kd [1, 8]: 0.9 nM
Discrimination ratio pre-let7a-1 (in parenthesis) ([1]; Table 6): 9.3
Kd [1, 9]: 0.96 nM
Kd [2, 10]: 2.1 nM
Discrimination ratio pre-miR16-1 (in parenthesis) ([2]; Table 6): 1.2
Kd [2, 11]: 2.1 nM
Kd [3]: 0.38 nM
Kd [4]: 3.8 nM
Kd [5]: 2.2 nM
Discrimination ratio pre-miR24-1 (in parenthesis) [5]: 0.66

LKKLLKLLKKLLKLAG [Peptide 1, Ac-LKKLLKLLKKLLKLAG]
Kd [1, 12]: 17 nM
Kd [1, 8]: 17 nM
Kd [2, 13]: 12 nM
Kd [2, 10]: 12 nM

LKKLLKLLKKLWKLAG [Peptide 1g, Ac-LKKLLKLLKKLWKLAG]
Kd [1, 12]: 0.25 nM
Kd [2, 13]: 0.56 nM

LKKLWKLLKKLLKLAG [Peptide 1c, Ac-LKKLWKLLKKLLKLAG]
Kd [1, 12]: 0.41 nM
Kd [2, 13]: 0.56 nM

LKKLLKLLKKWLKLAG [Peptide 1f, Ac-LKKLLKLLKKWLKLAG]
Kd [1, 12]: 0.32 nM
Kd [2, 13]: 0.48 nM
